Laboratory results published in patent US20250170079A1, “COMBINATIONS OF STAT-INHIBITORS AND IMMUNE CHECKPOINT INHIBITORS FOR THE TREATMENT AND/OR MANAGEMENT OF CANCER” (Tvardi Therapeutics, Inc., priority 2022, published 2025).

Experiments:
[1] = system: subcutaneous liver cancer syngeneic model H22; test: In vivo efficacy study of TTI-101 ± anti-PD-1 in subcutaneous liver cancer syngeneic model H22; design: species or system female BALB/c mice; settings: TTI-101 1.2 mg/mouse p.o. BID*3 weeks and/or anti-PD-1 10 mg/kg i.p. BIW*3 weeks
Description: The objective of efficacy study was to evaluate preclinically the in vivo therapeutic efficacy of TTI-101 alone and in combination with anti-PD-1 in the treatment of subcutaneous liver cancer syngeneic model H22 in female BALB/c mice. The objective of rechallenge study was to evaluate immune memory of the female BALB/c mice previously cured from subcutaneous liver cancer syngeneic model H22 by TTI-101 combined with anti-PD-1.
Dosing volume of Anti-PD-1 (clone RMP1-14) was adjusted for body weight. The concentration of anti-PD-1 was 1 mg/mL, and dosing volume was 10 μL/g. The anti-PD-1 dosing solution was prepared by diluting 1.372 mL of anti-PD-1 (8.2 mg/mL) with 9.878 mL of PBS.
A composition of TTI-101 (72 mg/mL) dissolved in Kolliphor RH40, PEG600, Labrasol, Tween 20, and citric acid solution, was then dispersed in 1:2 water (vortexed) to form the dosing emulsion. The concentration of TTI-101 in the dosing emulsion was 24 mg/mL.
The H22 tumor cells were maintained in vitro with RPMI1640 medium supplemented with 10% fetal bovine serum (FBS) at 37° C. in an atmosphere of 5% CO2 in air. The cells in exponential growth phase were harvested and quantitated by cell counter before tumor inoculation.
In efficacy study, each mouse was inoculated subcutaneously in the right front flank region with tumor cells (1×10^6) in 0.1 ml of PBS for tumor development.
The randomization in efficacy study started when the mean tumor size reached approximately 73 mm^3 (for groups 1-5) and 96 mm^3 (for groups 6-9). Totally 82 mice were enrolled in the study and randomly allocated to 9 study groups, with 10 mice per group (groups 1-5) and 8 mice per group (groups 6-9). Randomization was performed based on “Matched distribution” method (Study Director TM software, version 3.1.399.19). The date of randomization was denoted as Day 1.
Test articles were given between 8 am-9 am then again between 4 pm-5 pm.
For group 5, TTI-101 was initiated 5 days post anti-PD-1 dosing per the request.
Tumor volumes were measured twice per week after randomization in two dimensions using a caliper, and the volume was expressed in mm^3 using the formula: V=(L×W×W)/2, where V is tumor volume, L is tumor length (the longest tumor dimension) and W is tumor width (the longest tumor dimension perpendicular to L). Dosing as well as tumor and body weight measurements were conducted in a Laminar Flow Cabinet.
Tumor growth inhibition (TGI), T/C value and Survival was applied at the endpoint.
Tumor regression (REG)=[(T0−Ti)/T0]×100%;
Tumor Growth Inhibition; TGI %=(1−Ti/Ci)*100;
Treatment/Control (T/C) value (%) is an indicator of tumor response to treatment, and one of commonly used anti-tumor activity endpoint; T and C are the mean tumor volumes of the treatment and control groups, respectively, on a given day. […]

[2] = Bioavailability and pharmacokinetics of TTI-101 following IP or PO administration; format: in vivo, male Sprague-Dawley rats; settings: PO 25 mg/kg vs IP 25.6 mg/kg, single dose, rats
Description: Bioavailability and pharmacokinetics of TTI-101 in male Sprague-Dawley rats were evaluated following a single oral (PO) dose at 25 mg/kg (in labrasol:PEG400, 60:40% v/v) and a single intraperitoneal (IP) dose at 25.6 mg/kg (pH 7.4 PBS/propylene glycol/ethanol/DMSO, 20:70:5:5% v/v).

[3] = Day 21, vs vehicle+isotype group

greater exposure by oral administration compared to interperitoneal administration [2]: 90%
Compound: COc1ccc(S(=O)(=O)Nc2cc(-c3c(O)ccc4ccccc34)c(O)c3ccccc23)cc1 [TTI-101, N-(1′,2-dihydroxy-1,2′-binaphthalen-4′-yl)-4-methoxybenzenesulfonamide]
T/C (%) on Day 21 [1, 3]: 78.33%
TGI (%) on Day 21 [1, 3]: 21.67%
CR Ratio (tumor complete response, tumor regressed to 0) ([1]; animals with CR / animals per group): 0/10
Tumor volume (mm^3) (N) on Day 21 ([1]; mean ± SEM, Day 21): 2073.36 mm^3
